Paper PMC8091061, “Ceramide-1-phosphate transfer protein (CPTP) regulation by phosphoinositides” (The Journal of Biological Chemistry, 2021)

Tests used:
human GLTP = target: T1, human GLTP (Homo sapiens, UniProt Q9NZD2); test: FRET intervesicular lipid transfer; type: biochemical; settings: labelled compound; POPC donor to POPC acceptor vesicles, pH 6.6, 150 mM NaCl, EDTA, 25 °C; transfer cargo, not chemically converted
T1 sequence (Q9NZD2 1-209): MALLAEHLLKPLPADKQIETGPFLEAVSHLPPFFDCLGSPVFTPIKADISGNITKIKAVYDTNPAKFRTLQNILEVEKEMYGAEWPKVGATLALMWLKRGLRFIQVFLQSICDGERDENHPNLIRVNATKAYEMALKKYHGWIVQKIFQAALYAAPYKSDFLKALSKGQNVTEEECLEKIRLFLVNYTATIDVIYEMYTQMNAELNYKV

human CPTP (wtCPTP) = test: FRET from CPTP Trp/Tyr to dansyl-PE in POPC vesicles; type: binding; settings: pH 6.6, 150 mM NaCl, EDTA, 25 °C
Description: FRET from CPTP Trp/Tyr to dansyl-PE in POPC vesicles on human CPTP (wtCPTP)

[1] = apparent Kd for POPC vesicles with 10 mol% lipid and 2 mol% dansyl-PE (vesicle PC concentration, not free lipid)

Kd (human CPTP (wtCPTP); [1]) | Compound | other results
 | CCCCCCCCCCCCC/C=C/[C@@H](O)[C@H](CO[C@@H]1O[C@H](CO)[C@H](O)[C@H](O)[C@H]1O)NC(=O)CCCCCCCCC/C=C/c1c2ccccc2cc2ccccc12 [AV-GalCer] | FRET intervesicular lipid transfer (human GLTP): GalCer transfer rates by GLTP were unaffected by PI and PI-3P
260 ± 40 nM | CCCCCCCC/C=C\CCCCCCCC(=O)OC[C@H](COP(=O)(O)O[C@@H]1[C@H](O)[C@H](O)[C@@H](OP(=O)(O)O)[C@H](OP(=O)(O)O)[C@H]1O)OC(=O)CCCCCCC/C=C\CCCCCCCC [PI-(4,5)P2, 1,2-dioleoyl-sn-glycero-3-phospho-(1'-myo-inositol-4',5'-bisphosphate)] | 
260 ± 30 nM | CCCCCCCC/C=C\CCCCCCCC(=O)OC[C@H](COP(=O)(O)O[C@H]1[C@H](O)[C@@H](O)[C@H](OP(=O)(O)O)[C@@H](O)[C@H]1O)OC(=O)CCCCCCC/C=C\CCCCCCCC [PI-4P, 1,2-dioleoyl-sn-glycero-3-phospho-(1'-myo-inositol-4'-phosphate)] | 
 | CCCCCCCC/C=C\CCCCCCCC(=O)O[C@H](COC(=O)CCCCCCCCCCCCCCC)COP(=O)([O-])OCC[N+](C)(C)C [POPC, 1-Palmitoyl-2-oleyl-sn-glycero-3-phosphocholine] | Kd (human CPTP (wtCPTP); pure POPC vesicles with 2 mol% dansyl-PE (apparent, vesicle PC concentration)): 1760 ± 200 nM
290 ± 40 nM | PI-3P | 
750 ± 90 nM | CCCCCCCC/C=C\CCCCCCCC(=O)OC[C@H](COP(=O)(O)O[C@@H]1[C@H](O)[C@H](O)[C@@H](O)[C@H](O)[C@H]1O)OC(=O)CCCCCCC/C=C\CCCCCCCC [PI, 1,2-dioleoyl-sn-glycero-3-phospho-(1'-myo-inositol)] | 
